{"source": "paper PMC4397963", "about": "“Phospho-Tyrosine(s) vs. Phosphatidylinositol Binding in Shc Mediated Integrin Signaling” (American journal of molecular biology, 2015)", "key": {"full length Shc": {"target": "full length Shc", "details": "ref [21], cited from earlier work", "source_text": "Since their discovery about two decades ago, PTB domains have been identified and structurally characterized within numerous multi-domain proteins. The ways they interact with their targets are strikingly versatile. The phosphorylated tyrosine is not always required for the high affinity interactions, and, in some cases, the binding motif might not even contain the tyrosine residue at all. PTB domains in general are also famous for the significant variance in their ligand binding affinities, ranging from 0.1 to 100 μM [17]. […] We were greatly surprised that we were not able to reproduce the data reported by George and co-workers, who have reported a tight dissociation constant (Kd of 0.7 μM) for the full length Shc. […] The conditions we tested include: i) Shc PTB domain at 12°C and 25°C in several different buffers (including exactly th ..."}, "[1]": {"target": "T1, full length Shc (1 – 473) (Homo sapiens, UniProt P29353)", "T1 construct": "The vector of pET28a-full length Shc (1 – 473), generously provided by Dr. Ladbury; His-tag (N); made in house; host or cells: E. coli BL21 (DE3), pET28a (vector a gift from Dr. Ladbury)", "T1 sequence (P29353 1-473 isoform P29353-2)": "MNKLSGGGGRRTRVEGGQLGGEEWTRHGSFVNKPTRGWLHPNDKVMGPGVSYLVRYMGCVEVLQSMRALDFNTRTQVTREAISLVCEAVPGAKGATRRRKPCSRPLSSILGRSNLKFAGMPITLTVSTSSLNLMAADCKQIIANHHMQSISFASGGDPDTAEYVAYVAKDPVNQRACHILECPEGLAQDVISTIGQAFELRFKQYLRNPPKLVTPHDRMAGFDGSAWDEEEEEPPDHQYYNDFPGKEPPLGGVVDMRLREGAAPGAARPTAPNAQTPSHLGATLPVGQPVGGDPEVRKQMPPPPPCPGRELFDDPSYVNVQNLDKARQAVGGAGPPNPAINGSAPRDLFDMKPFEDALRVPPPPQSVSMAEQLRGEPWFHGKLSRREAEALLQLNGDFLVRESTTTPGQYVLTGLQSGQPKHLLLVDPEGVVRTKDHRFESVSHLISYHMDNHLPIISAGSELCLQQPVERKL", "experiment": "ITC binding to full length Shc", "details": "full length Shc, 12°C and 25°C", "protocol": "(§1) The Shc PTB domain (17 – 207) containing the pET15b vector was transformed into a Rosetta (DE3) cell line to pursue optimal expression levels. SH2 domain (380 – 473) was cloned into NdeI and XhoI sites in pET21b vector and then transformed into a BL21 (DE3) cell line. The vector of pET28a-full length Shc (1 – 473), generously provided by Dr. Ladbury (University of Texas MD Anderson Cancer Center, TX), was expressed in a BL21 (DE3) cell line as well. Typically, 10 ml overnight culture was used to inoculate 1 liter LB broth. Cells were grown at 37°C until OD600 reached 0.6. At this point the culture was cooled to room temperature and then the overnight overexpression was induced by 1 mM isopropyl-β-D-thiogalactopyranoside. Harvested cells were kept at −20°C for future purification or resuspended in lysis buffer supplemented with protease inhibitors. Cells were further lysed by french press and the cell debris was removed by centrifugation at 18,000 rpm at 4°C. […] The overexpression of the target protein and the purified protein were confirmed by SDS-PAGE and the bands of the expected mass were observed. […]\n(§2) Calorimetric measurements of a full length Shc, PTB domain, and SH2 domain to β3 phosphopeptides or PtdIns were performed on a low volume Nano ITC (TA Instruments). […] The concentration of protein samples was determined by UV measurements. […]"}, "[2]": {"target": "T2, Shc PTB domain (17 – 207) (Homo sapiens, UniProt P29353)", "T2 construct": "The Shc PTB domain (17 – 207) containing the pET15b vector was transformed into a Rosetta (DE3) cell line; His-tag (N); made in house; host or cells: E. coli Rosetta (DE3), pET15b", "T2 sequence (P29353 17-207 isoform P29353-2)": "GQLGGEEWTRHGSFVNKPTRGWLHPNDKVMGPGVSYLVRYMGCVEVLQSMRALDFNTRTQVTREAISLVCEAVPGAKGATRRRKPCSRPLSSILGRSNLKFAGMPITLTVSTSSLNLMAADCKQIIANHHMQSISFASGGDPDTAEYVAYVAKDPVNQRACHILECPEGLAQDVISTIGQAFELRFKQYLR", "experiment": "ITC binding to Shc PTB domain", "details": "Shc PTB domain, 12°C and 25°C, several buffers incl. 50 mM Tris pH 8.0, 200 mM NaCl, 1 mM Dithiothreitol", "protocol": "The Shc PTB domain (17 – 207) containing the pET15b vector was transformed into a Rosetta (DE3) cell line to pursue optimal expression levels. SH2 domain (380 – 473) was cloned into NdeI and XhoI sites in pET21b vector and then transformed into a BL21 (DE3) cell line. The vector of pET28a-full length Shc (1 – 473), generously provided by Dr. Ladbury (University of Texas MD Anderson Cancer Center, TX), was expressed in a BL21 (DE3) cell line as well. Typically, 10 ml overnight culture was used to inoculate 1 liter LB broth. Cells were grown at 37°C until OD600 reached 0.6. At this point the culture was cooled to room temperature and then the overnight overexpression was induced by 1 mM isopropyl-β-D-thiogalactopyranoside. Harvested cells were kept at −20°C for future purification or resuspended in lysis buffer supplemented with protease inhibitors. Cells were further lysed by french press and the cell debris was removed by centrifugation at 18,000 rpm at 4°C. […] The overexpression of the target protein and the purified protein were confirmed by SDS-PAGE and the bands of the expected mass were observed. The determination of protein concentration by UV measurement was consistent with Bradford assay.\nCalorimetric measurements of a full length Shc, PTB domain, and SH2 domain to β3 phosphopeptides or PtdIns were performed on a low volume Nano ITC (TA Instruments). All experiments were carried out in a buffer of 50 mM Tris, pH 7.5, 100 mM NaCl, 5 mM β-mercaptoethanol (unless described otherwise) at 12°C or 25°C with a stirring speed of 250 rpm to minimize the precipitation of the protein. 300 second time intervals were set between injections. The concentration of protein samples was determined by UV measurements. The titrants (β3 phosphopeptides or PtdIns) were prepared in the same buffer by the dilution of higher concentration stocks. The concentrations of the protein ranged from 30 μM to 150 μM. The concentration of protein was examined after each ITC experiment by UV to ensure the stability of proteins under the test condition. The analysis of the data was done with Nano Analyze Software (TA Instruments) suite using an “independent” model."}, "[3]": {"test_system": "Shc SH2 domain (380 – 473)", "experiment": "ITC (and other) binding to Shc SH2 domain", "details": "12°C and 25°C", "protocol": "as §1, §2"}, "apo Shc PTB domain": {"test_system": "apo Shc PTB domain", "experiment": "15N-HSQC NMR titration of apo Shc PTB domain", "assay_type": "binding", "details": "15N-labelled apo PTB 100 – 200 μM, 50 mM Tris pH 7.5, 100 mM NaCl, 35°C; lipid to protein up to 15 to 1 (Ins(1,4,5)P3), 5 to 1 (PtdIns(4,5)P2)", "protocol": "^15N-labelled recombinant proteins were overexpressed in M9 medium supplemented with ^15NH4Cl as the sole nitrogen source. The same purification procedures as described above were followed. NMR samples of 100 – 200 μM were prepared in a buffer of 50 mM Tris, pH 7.5, 100 mM NaCl, 5 mM β-mercaptoethanol, 7% D2O, 1 mM 4,4-dimethyl-4-silapentane-1-sulfonic acid as the internal standard. ^15N-HSQC titration experiments were performed on a Varian/Agilent Inova 600 MHz spectrometer equipped with inverse-triple resonance cryo-probe at 35°C. All spectra were processed with NMRPipe and analyzed in CCPNmr Analysis software suite.\nTo find out the molecular details of these weak Shc-PtdIns interactions, we next employed NMR and performed ^15N-HSQC chemical shifts mapping experiments which are especially useful to define weak binding. […] Chemical shift perturbations, associated with the probes binding, were monitored. Overall, the observed shifts in Shc PTB resonance frequencies were small. However, they were concentration dependent, reproducible, and similar among the two PtdIns tested. […] The close-ups of 15N-HSQC spectra of PTB in the presence of PtdIns(4,5)P2, exemplifying the most shifted resonances, are shown in Figure 2. […] The first one, represented by the residues Q^148, S^149 and A^168, overlaps with the classical phosphotyrosine binding pocket of the protein-peptide binary complex. However, the canonical PTB fold cannot be formed without the stabilizing hydrophobic residue (pY-5) of the target peptide. Thus, in apo PTB domain Ins(1,4,5)P3 could only establish intermediate dynamic contacts with the amine functional groups of R^67 or Q^148 side chains. The second binding site, including the residues L^63, Q^76 and S^107, is formed at the interface of the second helix, the loop connecting the first beta strand with the second helix and the beginning of the second beta strand. This second PtdIns binding site is distinct from the second novel phosphotyrosine binding site we previously described for Shc PTB-bi-β3 complex, although it includes several overlapping residues. […]"}}, "note": "“Also recorded” adds a separate entry of the source.", "data": [{"smiles": "O=P(O)(O)O[C@@H]1[C@H](O)[C@H](O)[C@@H](OP(=O)(O)O)[C@H](OP(=O)(O)O)[C@H]1O", "note": "[Ins(1,4,5)P3, D-myo-Inositol-1,4,5-triphosphate]", "values": [{"measurement": "Kd", "setting": "full length Shc; 50 mM Tris, pH 8.0, 200 mM NaCl, 1 mM Dithiothreitol", "value": 0.7, "unit": "µM"}, {"measurement": "relative binding strength", "setting": "full length Shc", "value": "much tighter than the binding of the isolated Shc PTB domain alone to PtdIns(4,5)P2"}, {"measurement": "binding by ITC", "setting": "[1]", "value": "No binding was found; also recorded: does not"}, {"measurement": "binding by ITC", "setting": "[2]", "value": "No binding was found; also recorded: minimal Shc PTB binding; also recorded: does not show to bind"}, {"measurement": "binding by ITC", "setting": "[3]", "value": "No binding was found; also recorded: does not show to bind"}, {"measurement": "15N-HSQC chemical shift perturbations", "setting": "apo Shc PTB domain", "value": "minimal chemical shift perturbations for a handful of residues; also recorded: less pronounced compared to PtdIns(4,5)P2"}]}]}
